Key:
human aromatase = biological target: T1, human aromatase (Homo sapiens, UniProt P11511); assay: Inhibition of human aromatase in vitro in JEG-3 cells (3H-water release from 1β-3H-androstenedione); type: cell-based; conditions: 10 nM 1β-3H-androstenedione, 2 h incubation
T1 construct: The JEG-3 cell line, derived from a human placental choriocarcinoma, is intrinsically very rich in human aromatase; endogenous in cells; host or cells: JEG-3 (human placental choriocarcinoma)
T1 sequence (P11511 1-503): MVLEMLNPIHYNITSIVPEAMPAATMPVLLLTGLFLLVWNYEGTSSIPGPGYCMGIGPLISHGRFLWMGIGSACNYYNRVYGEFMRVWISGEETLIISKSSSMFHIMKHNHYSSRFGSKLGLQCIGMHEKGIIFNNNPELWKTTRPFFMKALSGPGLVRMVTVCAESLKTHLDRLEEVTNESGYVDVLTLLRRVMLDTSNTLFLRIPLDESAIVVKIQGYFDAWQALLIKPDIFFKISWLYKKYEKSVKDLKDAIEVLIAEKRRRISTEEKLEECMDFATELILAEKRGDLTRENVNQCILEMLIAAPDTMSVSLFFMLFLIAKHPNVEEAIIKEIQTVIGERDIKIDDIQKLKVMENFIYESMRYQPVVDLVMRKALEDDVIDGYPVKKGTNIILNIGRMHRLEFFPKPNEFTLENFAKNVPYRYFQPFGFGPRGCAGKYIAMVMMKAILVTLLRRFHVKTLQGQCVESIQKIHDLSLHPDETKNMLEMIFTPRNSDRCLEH
Description: Stocks of JEG-3 cells are grown up to 80% of confluence as monolayers in plastic flasks in minimum Eagle's medium with 1 g/l glucose and 10% decomplemented fetal calf serum at pH 7.4 and 37° C., under a 5% CO2 atmosphere. Then, 24 hours before aromatase activity measurement, JEG-3 cells are distributed for seeding in 96-well microplates (60,000 to 100,000 viable cells in 100 μl of culture medium per well); 24 hours later, microplates are rinsed and fresh medium containing the radioactive aromatase substrate (1β-^3H-androstenedione, 10 nM) is added together with test compounds dissolved with 1% dimethylsulfoxyde in a test concentration range between 10^−11 and 10^−4 M in a total volume of 150 μl.
Two hours after the beginning of the incubation, 100 μl of the supernatants are transferred to homologous new 96-well microplates. A solution of dextran-coated charcoal (1%) is added in each well (100 μl/well); after standing for 10 minutes on ice, microplates are centrifuged (1500 g) for 10 more minutes at 4° C. All steroids, including the radioactive substrate and the newly biosynthesized estrogens, are trapped complexed by the charcoal; only the ^3H-water specifically formed during aromatisation of 1β-^3H-androstenedione, involving a specific oxidative step removing the 1β-^3H, remains in the supernatant at this stage.
Finally, aromatase activity is expressed in fmoles/μg DNA in 2 hours and aromatase inhibition in percentage of control incubation without inhibitors.

aromatase = biological target: T2, aromatase (Rattus norvegicus, UniProt P22443); assay: Inhibition of aromatase in vivo: inhibition of preovulatory surge of plasma estradiol in female Wistar rats; conditions: single oral dose 10 μg/kg on diestrus, plasma estradiol 24 h later, vs vehicle controls; range = independent studies
T2 construct: from tissue; host or cells: whole animal: adult female Wistar rats (endogenous enzyme)
T2 sequence (P22443 1-508): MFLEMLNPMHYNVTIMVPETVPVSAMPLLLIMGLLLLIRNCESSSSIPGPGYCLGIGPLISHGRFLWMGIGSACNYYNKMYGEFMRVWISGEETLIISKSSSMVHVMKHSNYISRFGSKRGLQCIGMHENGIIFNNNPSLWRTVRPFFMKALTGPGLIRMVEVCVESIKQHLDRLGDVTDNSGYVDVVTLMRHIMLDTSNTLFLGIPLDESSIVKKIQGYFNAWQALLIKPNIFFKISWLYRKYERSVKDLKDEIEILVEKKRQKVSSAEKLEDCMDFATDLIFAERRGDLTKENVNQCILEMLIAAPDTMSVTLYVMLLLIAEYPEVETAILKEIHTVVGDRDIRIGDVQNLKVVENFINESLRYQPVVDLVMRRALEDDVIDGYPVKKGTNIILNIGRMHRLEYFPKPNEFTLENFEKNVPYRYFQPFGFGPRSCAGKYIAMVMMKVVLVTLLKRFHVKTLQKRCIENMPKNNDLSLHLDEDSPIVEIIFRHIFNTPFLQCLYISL
Text: Aromatase is the steroidogenic enzyme responsible for the biosynthesis of estradiol, the main female sex hormone among estrogens. In the rat, estradiol is physiologically synthesized to high circulating levels in a particular period during the 4-day estrous cycle: it is the so-called preovulatory surge taking place in the afternoon of proestrus, just before ovulation which occurs during the night between proestrous and estrous phases. A sensitive physiological model for in vivo evaluation of aromatase inhibition was developped based on the inhibition of this preovulatory surge of estradiol levels.
Adult female Wistar rats are monitored for regular 4-day estrous cyclicity by daily vaginal smear examination; after 2 or 3 regular cycles, animals are treated by a single oral administration of the very low discriminative dose of 10 micrograms/kg in a 4 ml/kg volume around 04:00 PM on diestrus, i.e. on the day before proestrus. Precisely 24 hours later, aortic blood samples are drawn under gaseous anesthesia. Plasma estradiol levels are measured by radioimmunoassay with commercially available kits (Diagnostic Systems Laboratories, Webster, Tex., U. S. A.). Control and test groups usually consist of 7 to 10 rats, depending on the number of regularly cycling rats to distribute among study groups. Results are expressed in pg/ml and then in % of inhibition taking the estradiol levels of control animals receiving only the oral vehicle as the 100% reference to allow comparisons between different independent studies, since the preovulatory surge level may vary in each control group from one study to another between about 25 to 40 pg/ml.

Row | melting point [°C] | Structure (SMILES) | IC50 (human aromatase) [nM] | % inhibition at 10 μg/kg (aromatase)
1 | 134 | N#Cc1ccc(N(Cc2ccc(C(F)(F)F)cc2)n2ccnc2)cc1 [Example 6, 4-[N-(1H-imidazol-1-yl)-N-(4-trifluoromethylphenylmethyl)amino]benzonitrile] | 0.31 ± 0.01 | 57%
2 | – | CC(C)(C#N)c1cc(Cn2cncn2)cc(C(C)(C)C#N)c1 [Anastrozole, anastrozole, reference compound] | – | 18%-33%
3 | – | N#Cc1ccc(CN(c2ccc(C#N)cc2)n2ccnc2)cc1 [Example 11, 4-[N-(1H-imidazol-1-yl)-N-(4-cyanophenylmethyl)amino]benzonitrile] | 0.18 ± 0.02 | 57%-59%
4 | – | N#Cc1ccc(N(Cc2ccc(F)cc2)n2ccnc2)cc1 [Example 14, 4-[N-(1H-imidazol-1-yl)-N-(4-fluorophenylmethyl)amino]benzonitrile] | 0.16 ± 0.02 | 49%-57%
5 | 132 | N#Cc1ccc(N(Cc2ccc(F)c(F)c2)n2ccnc2)cc1 [Example 17, 4-[N-(1H-imidazol-1-yl)-N-(3,4-difluorophenylmethyl)amino]benzonitrile] | 0.24 ± 0.02 | 60%
6 | – | N#Cc1ccc(N(Cc2ccc(Cl)cc2)n2ccnc2)cc1 [Example 7, 4-[N-(1H-imidazol-1-yl)-N-(4-chlorophenylmethyl)amino]benzonitrile] | 0.14 ± 0.05 | 47%
7 | – | N#Cc1ccc(N(Cc2ccc(Br)cc2)n2cncn2)cc1 [YM 511, reference compound] | 0.3 ± 0.04 | 35%
